In patent US12421193B2, “GPR52 modulators and methods of use” (Neurocrine Biosciences, Inc., priority 2020, dated 2025):
Counter-ions that a name gives are not always drawn.

Target: T1, recombinant human GPR52 (Homo sapiens, UniProt Q9Y2T5)
T1 construct: expressed in transfected cells
Test: TR-FRET cAMP assay (LANCE Ultra cAMP Kit), GPR52 activity
Type: cell-based
Details: Flp-In-CHO cells stably expressing recombinant human GPR52; cAMP production, normalized to the positive control
Experimental: TR-FRET cAMP assays were performed using commercially available assay kits (LANCE™ Ultra cAMP Kit). Controls and compounds were solubilized in DMSO using ½ log dilution to generate duplicate 10-point dose response curves in 384-well polypropylene compound plates. Sixty nanoliters of the diluted compounds were transferred into 384-well NBS assay plates and further diluted to 1× with the addition of 2000 cells per well. Flp-In™—CHO cells that stably express recombinant human GPR52.
Cells were harvested with cell stripper and resuspended in Stimulation Buffer (5 mM HEPES, 0.1% bovine serum albumin (BSA), 0.5 mM IBMX, pH 7.4). After thirty minutes incubation at room temperature, detection reagents were added to each well. Plates were then incubated for 30 minutes at room temperature. The LANCE™ Ultra cAMP assay uses time-resolved fluorescence resonance energy transfer (TR-FRET) to detect cAMVP production; this signal was quantified using a Pherastar multi-mode plate reader.
Dose-response curves were generated from the fluorescence counts normalized to the positive control. E EC50 values were obtained using a nonlinear regression curve-fitting program.

T1 sequence (Q9Y2T5 whole entry): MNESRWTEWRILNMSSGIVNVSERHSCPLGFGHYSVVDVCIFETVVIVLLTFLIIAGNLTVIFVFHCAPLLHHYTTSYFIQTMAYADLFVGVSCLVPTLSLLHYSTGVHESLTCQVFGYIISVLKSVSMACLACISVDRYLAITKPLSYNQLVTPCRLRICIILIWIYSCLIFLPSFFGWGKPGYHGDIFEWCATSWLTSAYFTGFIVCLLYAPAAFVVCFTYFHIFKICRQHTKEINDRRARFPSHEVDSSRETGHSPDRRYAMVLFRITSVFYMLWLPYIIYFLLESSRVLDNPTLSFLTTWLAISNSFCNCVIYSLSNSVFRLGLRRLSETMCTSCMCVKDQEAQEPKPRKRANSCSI

Row | SMILES | EC50
1 | Cc1cc(-c2cc(COc3cccc(CCO)c3)ccn2)ccc1C(N)=O [Example 16, 4-{4-[3-(2-hydroxyethyl)phenoxymethyl]pyridin-2-yl}-2-methylbenzamide] | 101 to 1000 nM
2 | Cc1cc(-c2cc(COc3cc(F)c(Cl)c(F)c3)ccn2)ccc1C(N)=O [Example 56, 4-[4-(4-chloro-3,5-difluorophenoxymethyl)pyridin-2-yl]-2-methylbenzamide] | < 25 nM
3 | COc1ccc(OCc2cncc(-c3ccc(C(N)=O)c(C)c3)c2)cc1 [Example 98, 4-[5-(4-methoxyphenoxymethyl)pyridin-3-yl]-2-methylbenzamide] | 25 to 100 nM
4 | Cc1ccc(OCc2ccnc(-c3ccc(C(N)=O)c(C)c3)c2)c(Cl)c1 [Example 44, 4-[4-(2-chloro-4-methylphenoxymethyl)pyridin-2-yl]-2-methylbenzamide] | < 25 nM
5 | COc1ccc(OCc2cncc(-c3ccc(C(N)=O)c(C)c3)c2)cc1OC [Example 96, 4-[5-(3,4-dimethoxyphenoxymethyl)pyridin-3-yl]-2-methylbenzamide] | > 1000 nM
6 | CC(=O)c1cccc(OCc2ccnc(-c3ccc(C(N)=O)c(C)c3)c2)c1 [Example 43, 4-[4-(3-acetylphenoxymethyl)pyridin-2-yl]-2-methylbenzamide] | 101 to 1000 nM
7 | Cc1cc(-c2cc(COc3ccc(S(C)(=O)=O)cc3)ccn2)ccc1C(N)=O [Example 6, 4-[4-(4-methanesulfonylphenoxymethyl)pyridin-2-yl]-2-methylbenzamide] | 101 to 1000 nM
8 | Cc1cc(-c2cc(COc3ccc(C(F)(F)F)cc3)ccn2)ccc1C(N)=O [Example 1, 4-{4-[4-(trifluoromethyl)phenoxymethyl]pyridin-2-yl}2-methyl-benzamide hydrochloride] | 25 to 100 nM
9 | Cc1cc(-c2cc(COc3ccnc(C(F)(F)F)c3)ccn2)ccc1C(N)=O [Example 11, 4-[4-({[2-(trifluoromethyl)pyridin-4-yl]oxy}methyl)pyridin-2-yl]-2-methyl benzamide] | 101 to 1000 nM
10 | Cc1cc(-c2cc(COc3cc(F)cc(F)c3)ccn2)ccc1C(N)=O [Example 15, 4-[4-(3,5-difluorophenoxymethyl)pyridin-2-yl]-2-methylbenzamide] | 25 to 100 nM
11 | Cc1cc(-c2cc(COc3cccc(CC#N)c3)ccn2)ccc1C(N)=O [Example 73, 4-{4-[3-(cyanomethyl)phenoxymethyl]pyridin-2-yl}-2-methylbenzamide] | 101 to 1000 nM
12 | Cc1cc(F)ccc1OCc1ccnc(-c2ccc(C(N)=O)c(C)c2)c1 [Example 29, 4-[4-(4-fluoro-2-methylphenoxymethyl)pyridin-2-yl]-2-methylbenzamide] | 101 to 1000 nM
13 | Cc1cccc(OCc2ccnc(-c3ccc(C(N)=O)c(C)c3)c2)c1 [Example 38, 4-[4-(3-methylphenoxymethyl)pyridin-2-yl]-2-methyl benzamide] | 25 to 100 nM
14 | Cc1cc(-c2cc(COc3ccc(F)cc3)ccn2)ccc1C(N)=O [Example 12, 4-[4-(4-fluorophenoxymethyl)pyridin-2-yl]-2-methylbenzamide] | 25 to 100 nM
15 | COc1ccc2ccc(OCc3ccnc(-c4ccc(C(N)=O)c(C)c4)c3)cc2c1 [Example 21, 4-(4-{[(7-methoxynaphthalen-2-yl)oxy]methyl}pyridin-2-yl)-2-methylbenzamide] | 25 to 100 nM
16 | COc1ccc(OCc2ccnc(-c3ccc(C(N)=O)c(C)c3)c2)c2ccccc12 [Example 19, 4-(4-{[(4-methoxynaphthalen-1-yl)oxy]methyl}pyridin-2-yl)-2-methylbenzamide] | 101 to 1000 nM
17 | Cc1cc(-c2cncc(COc3cc(F)cc(F)c3)c2)ccc1C(N)=O [Example 93, 4-[5-(3,5-difluorophenoxymethyl)pyridin-3-yl]-2-methylbenzamide] | 101 to 1000 nM
18 | Cc1cc(-c2cncc(COc3ccc(C#N)c(F)c3)c2)ccc1C(N)=O [Example 91, 4-[5-(4-cyano-3-fluorophenoxymethyl)pyridin-3-yl]-2-methylbenzamide] | > 1000 nM
19 | Cc1cc(-c2cccc(COc3cccc(C(F)(F)F)c3)n2)ccc1C(N)=O [Example 102, 4-{6-[3-(trifluoromethyl)phenoxymethyl]pyridin-2-yl}-2-methylbenzamide] | > 1000 nM
20 | COc1cc(OCc2cncc(-c3ccc(C(N)=O)c(C)c3)c2)ccc1C(F)(F)F [Example 101, 4-{5-[3-methoxy-4-(trifluoromethyl)phenoxymethyl]pyridin-3-yl}-2-methylbenzamide] | 101 to 1000 nM
21 | CSc1ccccc1OCc1ccnc(-c2ccc(C(N)=O)c(C)c2)c1 [Example 53, 4-{4-[2-(methylsulfanyl)phenoxymethyl]pyridin-2-yl}-2-methyl benzamide] | 25 to 100 nM
22 | COc1ccc(OCc2ccnc(-c3ccc(C(N)=O)c(C)c3)c2)c(Cl)c1 [Example 22, 4-[4-(2-chloro-4-methoxyphenoxymethyl)pyridin-2-yl]-2-methylbenzamide] | < 25 nM

Row | SMILES | EC50
23 | Cc1cc(-c2cc(COc3ccc([N+](=O)[O-])cc3)ccn2)ccc1C(N)=O [Example 33, 4-[4-(4-nitrophenoxymethyl)pyridin-2-yl]-2-methylbenzamide] | < 25 nM
24 | COc1ccc(OCc2ccnc(-c3ccc(C(N)=O)c(C)c3)c2)cc1OC [Example 17, 4-[4-(3,4-dimethoxyphenoxymethyl)pyridin-2-yl]-2-methylbenzamide] | 101 to 1000 nM
25 | Cc1cc(-c2cc(COc3ccc4c(c3)OCC4)ccn2)ccc1C(N)=O [Example 63, 4-{4-[(2,3-dihydro-1-benzofuran-6-yloxy)methyl]pyridin-2-yl}-2-methylbenzamide] | 101 to 1000 nM
26 | Cc1cc(-c2cc(COc3ccccc3)ccn2)ccc1C(N)=O [Example 25, 4-[4-(phenoxymethyl)pyridin-2-yl]-2-methylbenzamide] | 101 to 1000 nM
27 | Cc1cc(-c2cc(COc3ccc(C#N)c(F)c3F)ccn2)ccc1C(N)=O [Example 9, 4-[4-(4-cyano-2,3-difluorophenoxymethyl)pyridin-2-yl]-2-methylbenzamide] | 101 to 1000 nM
28 | Cc1cc(-c2cc(COc3cccc(F)c3F)ccn2)ccc1C(N)=O [Example 52, 4-[4-(2,3-difluorophenoxymethyl)pyridin-2-yl]-2-methylbenzamide] | 25 to 100 nM
29 | Cc1cc(-c2cc(COc3cc(F)cc(C4CC4)c3)ccn2)ccc1C(N)=O [Example 70, 4-[4-(3-cyclopropyl-5-fluorophenoxymethyl)pyridin-2-yl]-2-methylbenzamide] | < 25 nM
30 | Cc1cc(-c2ccnc(COc3ccc(C#N)c(F)c3F)c2)ccc1C(N)=O [Example 84, 4-[2-(4-cyano-2,3-difluorophenoxymethyl)pyridin-4-yl]-2-methylbenzamide] | 101 to 1000 nM
31 | Cc1cc(-c2cc(COc3ccc(Cl)c(F)c3)ccn2)ccc1C(N)=O [Example 34, 4-[4-(4-chloro-3-fluorophenoxymethyl)pyridin-2-yl]-2-methylbenzamide] | 101 to 1000 nM
32 | CCc1ccccc1OCc1ccnc(-c2ccc(C(N)=O)c(C)c2)c1 [Example 32, 4-[4-(2-ethylphenoxymethyl)pyridin-2-yl]-2-methylbenzamide] | 101 to 1000 nM
33 | Cc1cc(-c2ccnc(COc3cc(F)cc(F)c3)c2)ccc1C(N)=O [Example 85, 4-[2-(3,5-difluorophenoxymethyl)pyridin-4-yl]-2-methylbenzamide] | 101 to 1000 nM
34 | CSc1ccc(OCc2ccnc(-c3ccc(C(N)=O)c(C)c3)c2)cc1 [Example 37, 4-{4-[4-(methylsulfanyl)phenoxymethyl]pyridin-2-yl}-2-methyl benzamide] | 25 to 100 nM
35 | COc1cncc(OCc2ccnc(-c3ccc(C(N)=O)c(C)c3)c2)c1 [Example 74, 4-(4-{[(5-methoxypyridin-3-yl)oxy]methyl}pyridin-2-yl)-2-methylbenzamide] | 101 to 1000 nM
36 | Cc1cc(-c2cc(COc3ccc4ccccc4c3)ccn2)ccc1C(N)=O [Example 42, 4-{4-[(naphthalen-2-yloxy)methyl]pyridin-2-yl}-2-methylbenzamide] | 25 to 100 nM
37 | Cc1cc(-c2cc(COc3ccc(C#N)c(F)c3)ccn2)ccc1C(N)=O [Example 4, 4-[4-(4-cyano-3-fluorophenoxymethyl)pyridin-2-yl]-2-methylbenzamide hydrochloride] | 25 to 100 nM
38 | Cc1cc(-c2cc(COc3ccc(C#N)c(F)c3)ccn2)ccc1C(=O)NCCO [Example 79, 4-[4-(4-cyano-3-fluorophenoxymethyl)pyridin-2-yl]-N-(2-hydroxyethyl)-2-methylbenzamide] | 101 to 1000 nM
39 | Cc1cc(-c2cc(COc3cccc(C(F)F)c3)ccn2)ccc1C(N)=O [Example 67, 4-{4-[3-(difluoromethyl)phenoxymethyl]pyridin-2-yl}-2-methylbenzamide] | < 25 nM
40 | COc1cc(OCc2ccnc(-c3ccc(C(N)=O)c(C)c3)c2)ccc1C(F)(F)F [Example 58, 4-{4-[3-methoxy-4-(trifluoromethyl)phenoxymethyl]pyridin-2-yl}-2-methylbenzamide] | 25 to 100 nM
41 | Cc1cc(-c2cc(COc3ccc(C(C)(C)O)cc3)ccn2)ccc1C(N)=O [Example 69, 4-{4-[4-(2-hydroxypropan-2-yl)phenoxymethyl]pyridin-2-yl}-2-methylbenzamide] | 25 to 100 nM
42 | Cc1cc(-c2cc(COc3ccc(F)c(F)c3)ccn2)ccc1C(N)=O [Example 48, 4-[4-(3,4-difluorophenoxymethyl)pyridin-2-yl]-2-methylbenzamide] | < 25 nM
43 | Cc1cc(-c2ccnc(COc3ccc(C#N)c(F)c3)c2)ccc1C(N)=O [Example 82, 4-[2-(4-cyano-3-fluorophenoxymethyl)pyridin-4-yl]-2-methylbenzamide] | 25 to 100 nM
